What all share (assay type): cell-based
For assay [1], the system named is S. aureus NB01006-AVR005, gyrA (S84L), grlA (580F) and grlB (E471K). Kind of assay: microbe, parasite or virus in culture. The following applies: Staphylococcus aureus, 20 h, read-out: Antibacterial activity (MIC) NB01006-AVR005. In short, it runs like this: (§1)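 Per CLSI, strains grown overnight on Mueller-Hinton agar are tested in cation-adjusted Mueller-Hinton broth at about 5×10^5 CFU/mL against serially diluted compound, 1% DMSO final. Incubation runs 20 h at 35° C; MIC is judged visually with OD600 support.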

Assay [2] concerns P. aeruginosa NB52019, wild-type PAO1 strain. Kind of assay: MIC by broth microdilution, P. aeruginosa NB52019. The following applies: Pseudomonas aeruginosa, CAMHB, 35° C., 20 hours, read-out: Antibacterial activity (MIC) NB52019. In short, it runs like this: as §1
On the technique in general: Dilution methods test growth across graded concentrations, often in twofold steps.

The test system of assay [3] is S. pneumoniae ATCC 25922 (NB07001). Kind of assay: MIC by broth microdilution, S. pneumoniae NB07001. The conditions noted are these: Streptococcus pneumoniae, ATCC25922, 20 h, read-out: Antibacterial activity (MIC) NB07001. In short, it runs like this: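 CAMHB, ~5×10^5 CFU/mL, 2-fold serial dilutions (final DMSO 1%), 35° C, ambient air, 20 h. Read OD600 plus visual check; MIC = lowest conc. with no visible growth, μg/mL.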

In assay [4] the test system is E. faecalis ATCC 29212 (NB04001). Kind of assay: MIC by broth microdilution, E. faecalis NB04001. The following applies: Enterococcus faecalis, ATCC29212, CAMHB, 35° C., 20 hours, read-out: Antibacterial activity (MIC) NB04001. An outline of the steps: as §1
Assay [5] relates to S. aureus NB01080 fluoroquinolone-resistant clinical isolate. Description: MIC by broth microdilution, S. aureus NB01080. The conditions noted are these: Staphylococcus aureus, CAMHB, 35° C., 20 hours, read-out: Antibacterial activity (MIC) NB01080. In short, it runs like this: as §1
For assay [6], the system named is E. coli ATCC 25922 (NB27001). Description: MIC by broth microdilution, E. coli NB27001. The conditions noted are these: Escherichia coli, ATCC25922, CAMHB, 35° C., 20 hours, read-out: Antibacterial activity (MIC) NB27001. An outline of the steps: as §1
The subject of assay [7] is S. aureus ATCC 49951 (NB01006). Description: MIC by broth microdilution, S. aureus NB01006. The following applies: Staphylococcus aureus, ATCC49951, CAMHB, 35° C., 20 hours, read-out: Antibacterial activity (MIC) NB01006. An outline of the steps: as §1

SMILES strings stand for the structures. Converted amounts (≈) assume the structure as drawn.

For the compound `C[C@H]1COc2c(N3CC4CC4(N)C3)c(F)cc3cc(C(=O)O)c(=O)n1c23` (stereo partly drawn) [Example 1.3, (3S)-10-(1-amino-3-azabicyclo[3.1.0]hexan-3-yl)-9-fluoro-3-methyl-5-oxo-2,3-dihydro-5H-[1,4]oxazino[2,3,4-ij]quinoline-6-carboxylic acid], the MIC was 1 to 32 µg/mL (≈ 2.78 to 89 µM) in assay [1]; greater than 32 µg/mL in assay [2]; 1 to 32 µg/mL (≈ 2.78 to 89 µM) in assay [3]; 1 to 32 µg/mL (≈ 2.78 to 89 µM) in assay [4]; 1 to 32 µg/mL (≈ 2.78 to 89 µM) in assay [5]; 1 to 32 µg/mL (≈ 2.78 to 89 µM) in assay [6]. In addition, the MIC in assay [7] was less than 1 µg/mL.

For `C[C@H]1COc2c(N3CCN(C)CC3)c(F)cc3cc(C(=O)O)c(=O)n1c23` [Example 1.4, (S)-9-fluoro-3-methyl-10-(4-methylpiperazin-1-yl)-5-oxo-2,3-dihydro-5H-[1,4]oxazino[2,3,4-ij]quinoline-6-carboxylic acid], the MIC in assay [1] was greater than 32 µg/mL; in assay [2] it was greater than 32 µg/mL; in assay [3] it was greater than 32 µg/mL; in assay [4], greater than 32 µg/mL; in assay [5], greater than 32 µg/mL; in assay [6], 1 to 32 µg/mL (≈ 2.77 to 88.6 µM). Besides, the MIC in assay [7] lay in the range of 1 to 32 µg/mL (≈ 2.77 to 88.6 µM).

`C[C@H](N)[C@@H]1CCN(c2c(F)cc3cc(C(=O)O)c(=O)n4c3c2OC[C@@H]4C)C1` [Example 1.5, (S)-10-((R)-3-((S)-1-aminoethyl)pyrrolidin-1-yl)-9-fluoro-3-methyl-5-oxo-2,3-dihydro-5H-[1,4]oxazino[2,3,4-ij]quinoline-6-carboxylic acid]: the MIC was 1 to 32 µg/mL (≈ 2.66 to 85.2 µM) in assay [1]; 1 to 32 µg/mL (≈ 2.66 to 85.2 µM) in assay [2]; less than 1 µg/mL in assay [3]; less than 1 µg/mL in assay [4]; less than 1 µg/mL in assay [5]; 1 to 32 µg/mL (≈ 2.66 to 85.2 µM) in assay [6]. Moreover, in assay [7], the MIC was less than 1 µg/mL.

On to `C[C@H]1COc2c(N3CC[C@H](O)C3)c(F)cc3cc(C(=O)O)c(=O)n1c23` [Example 1.6, (S)-9-fluoro-10-((S)-3-hydroxypyrrolidin-1-yl)-3-methyl-5-oxo-2,3-dihydro-5H-[1,4]oxazino[2,3,4-ij]quinoline-6-carboxylic acid], for which the MIC in assay [1] is greater than 32 µg/mL; in assay [2], greater than 32 µg/mL; in assay [3], 1 to 32 µg/mL (≈ 2.87 to 91.9 µM); in assay [4] it was 1 to 32 µg/mL (≈ 2.87 to 91.9 µM); in assay [5] it was 1 to 32 µg/mL (≈ 2.87 to 91.9 µM); in assay [6] it was 1 to 32 µg/mL (≈ 2.87 to 91.9 µM). Also, in assay [7], the MIC was less than 1 µg/mL.

Regarding `C[C@H]1COc2c(N3CCC(=C(Cl)CO)CC3)c(F)cc3cc(C(=O)O)c(=O)n1c23` [Example 1.8, (S)-10-(4-(1-chloro-2-hydroxyethylidene)piperidin-1-yl)-9-fluoro-3-methyl-5-oxo-2,3-dihydro-5H-[1,4]oxazino[2,3,4-ij]quinoline-6-carboxylic acid], the MIC in assay [1] was 1 to 32 µg/mL (≈ 2.36 to 75.7 µM); in assay [2] it was greater than 32 µg/mL; in assay [3], less than 1 µg/mL; in assay [4], less than 1 µg/mL; in assay [5], less than 1 µg/mL; in assay [6], greater than 32 µg/mL. In addition, the MIC in assay [7] was less than 1 µg/mL.

As to `C[C@H]1COc2c(N3CCC(C4(N)COC4)C3)c(F)cc3cc(C(=O)O)c(=O)n1c23` (stereo partly drawn) [Example 1.9, (3S)-10-(3-(3-aminooxetan-3-yl)pyrrolidin-1-yl)-9-fluoro-3-methyl-5-oxo-2,3-dihydro-5H-[1,4]oxazino[2,3,4-ij]quinoline-6-carboxylic acid], the MIC in assay [1] is greater than 32 µg/mL; in assay [2] it was greater than 32 µg/mL; in assay [3] it was 1 to 32 µg/mL (≈ 2.48 to 79.3 µM); in assay [4] it was greater than 32 µg/mL; in assay [5], greater than 32 µg/mL; in assay [6] it was greater than 32 µg/mL. In addition, the MIC in assay [7] lay in the range of 1 to 32 µg/mL (≈ 2.48 to 79.3 µM).

For `C[C@H]1COc2c(N3CCC(=C(Cl)CN)CC3)c(F)cc3cc(C(=O)O)c(=O)n1c23` [Example 1.10, (S)-10-(4-(2-amino-1-chloroethylidene)piperidin-1-yl)-9-fluoro-3-methyl-5-oxo-2,3-dihydro-5H-[1,4]oxazino[2,3,4-ij]quinoline-6-carboxylic acid], the MIC in assay [1] was greater than 32 µg/mL; in assay [2], greater than 32 µg/mL; in assay [3], less than 1 µg/mL; in assay [4], 1 to 32 µg/mL (≈ 2.37 to 75.9 µM); in assay [5], 1 to 32 µg/mL (≈ 2.37 to 75.9 µM); in assay [6], greater than 32 µg/mL. For the same compound, the MIC in assay [7] is 1 to 32 µg/mL (≈ 2.37 to 75.9 µM).

Consider `CNC1([C@@H]2CCN(c3c(F)cc4cc(C(=O)O)c(=O)n5c4c3OC[C@@H]5C)C2)CC1` [Example 1.12, (S)-9-fluoro-3-methyl-10-((R)-3-(1-(methylamino)cyclopropyl)pyrrolidin-1-yl)-5-oxo-2,3-dihydro-5H-[1,4]oxazino[2,3,4-ij]quinoline-6-carboxylic acid], for which the MIC is 1 to 32 µg/mL (≈ 2.49 to 79.7 µM) in assay [1]; greater than 32 µg/mL in assay [2]; less than 1 µg/mL in assay [3]; 1 to 32 µg/mL (≈ 2.49 to 79.7 µM) in assay [4]; 1 to 32 µg/mL (≈ 2.49 to 79.7 µM) in assay [5]; 1 to 32 µg/mL (≈ 2.49 to 79.7 µM) in assay [6]. The MIC in assay [7] was less than 1 µg/mL.

For the compound `C[C@H]1COc2c(N3CC4CCCC4(N)C3)c(F)cc3cc(C(=O)O)c(=O)n1c23` (stereo partly drawn) [Example 1.13, (3S)-10-(3a-aminohexahydrocyclopenta [c]pyrrol-2(1H)-yl)-9-fluoro-3-methyl-5-oxo-2,3-dihydro-5H-[1,4]oxazino[2,3,4-ij]quinoline-6-carboxylic acid], the MIC in assay [1] was greater than 32 µg/mL; in assay [2], greater than 32 µg/mL; in assay [3], 1 to 32 µg/mL (≈ 2.58 to 82.6 µM); in assay [4], 1 to 32 µg/mL (≈ 2.58 to 82.6 µM); in assay [5], greater than 32 µg/mL; in assay [6] it was 1 to 32 µg/mL (≈ 2.58 to 82.6 µM). The MIC in assay [7] fell in the range of 1 to 32 µg/mL (≈ 2.58 to 82.6 µM).

Take `C[C@H]1COc2c(N3CCN4C(=O)CCC4C3)c(F)cc3cc(C(=O)O)c(=O)n1c23` (stereo partly drawn) [Example 1.14, (3S)-9-fluoro-3-methyl-5-oxo-10-(6-oxohexahydropyrrolo[1,2-a]pyrazin-2(1H)-yl)-2,3-dihydro-5H-[1,4]oxazino[2,3,4-ij]quinoline-6-carboxylic acid]: the MIC in assay [1] was 1 to 32 µg/mL (≈ 2.49 to 79.7 µM); in assay [2], greater than 32 µg/mL; in assay [3] it was 1 to 32 µg/mL (≈ 2.49 to 79.7 µM); in assay [4] it was 1 to 32 µg/mL (≈ 2.49 to 79.7 µM); in assay [5], 1 to 32 µg/mL (≈ 2.49 to 79.7 µM); in assay [6], greater than 32 µg/mL. Also, the MIC in assay [7] was less than 1 µg/mL.

With `C[C@H]1COc2c(N3Cc4ccncc4C3)c(F)cc3cc(C(=O)O)c(=O)n1c23` [Example 1.15, (S)-10-(1,3-dihydro-2H-pyrrolo[3,4-c]pyridin-2-yl)-9-fluoro-3-methyl-5-oxo-2,3-dihydro-5H-[1,4]oxazino[2,3,4-ij]quinoline-6-carboxylic acid], the MIC in assay [1] was 1 to 32 µg/mL (≈ 2.62 to 83.9 µM); in assay [2], greater than 32 µg/mL; in assay [3], less than 1 µg/mL; in assay [4], 1 to 32 µg/mL (≈ 2.62 to 83.9 µM); in assay [5] it was 1 to 32 µg/mL (≈ 2.62 to 83.9 µM); in assay [6], 1 to 32 µg/mL (≈ 2.62 to 83.9 µM). The MIC in assay [7] was less than 1 µg/mL.

For `C[C@H]1COc2c(N3CCC(F)(CN)C3)c(F)cc3cc(C(=O)O)c(=O)n1c23` (stereo partly drawn) [Example 1.16, (3S)-10-(3-(aminomethyl)-3-fluoropyrrolidin-1-yl)-9-fluoro-3-methyl-5-oxo-2,3-dihydro-5H-[1,4]oxazino[2,3,4-ij]quinoline-6-carboxylic acid], the MIC was 1 to 32 µg/mL (≈ 2.64 to 84.4 µM) in assay [1]; greater than 32 µg/mL in assay [2]; less than 1 µg/mL in assay [3]; 1 to 32 µg/mL (≈ 2.64 to 84.4 µM) in assay [4]; 1 to 32 µg/mL (≈ 2.64 to 84.4 µM) in assay [5]; 1 to 32 µg/mL (≈ 2.64 to 84.4 µM) in assay [6]. Further, the MIC in assay [7] is less than 1 µg/mL.

These data come from patent US20180318311A1, “TRICYCLIC 2-QUINOLINONES AS ANTIBACTERIALS” (priority 2017, published 2018).
